In patent publication US11077100B2, “Tetrahydroquinoline derivatives as P2X7 receptor antagonists” (RaQualia Pharma Inc., priority 2017, dated 2021):
pIC50: −log10 of the molar value.

Assays:
human P2X7 = human P2X7 (Homo sapiens (Human), UniProt Q99572); test: Human P2X7 functional assay (Ca2+ influx, Fluo-4, FDSS); type: cell-based; conditions: antagonistic activity with respect to the human P2X7 receptor; BzATP final concentration 80 microM
Summary of the method: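 HEK293 cells stably expressing C-terminally FLAG-tagged human P2X7, loaded with Fluo-4. Compounds were preincubated for 10 min at room temperature, then 80 μM BzATP (final) was added and Ca2+ fluorescence read at 540 nm (480 nm excitation) by FDSS. IC50 values come from 7-point curves, duplicate wells.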

rat P2X7 = rat P2X7 (Rattus norvegicus (Rat), UniProt Q64663); test: Rat P2X7 functional assay (Ca2+ influx, Fluo-4, FDSS); type: cell-based; conditions: HEK293 cells stably expressing rat P2X7; BzATP final 10 microM; 7-point dose-response; read-out: Antagonistic activities with respect to the rat P2X7 receptor (IC50)
Sequence of rat P2X7 (Q64663 whole entry): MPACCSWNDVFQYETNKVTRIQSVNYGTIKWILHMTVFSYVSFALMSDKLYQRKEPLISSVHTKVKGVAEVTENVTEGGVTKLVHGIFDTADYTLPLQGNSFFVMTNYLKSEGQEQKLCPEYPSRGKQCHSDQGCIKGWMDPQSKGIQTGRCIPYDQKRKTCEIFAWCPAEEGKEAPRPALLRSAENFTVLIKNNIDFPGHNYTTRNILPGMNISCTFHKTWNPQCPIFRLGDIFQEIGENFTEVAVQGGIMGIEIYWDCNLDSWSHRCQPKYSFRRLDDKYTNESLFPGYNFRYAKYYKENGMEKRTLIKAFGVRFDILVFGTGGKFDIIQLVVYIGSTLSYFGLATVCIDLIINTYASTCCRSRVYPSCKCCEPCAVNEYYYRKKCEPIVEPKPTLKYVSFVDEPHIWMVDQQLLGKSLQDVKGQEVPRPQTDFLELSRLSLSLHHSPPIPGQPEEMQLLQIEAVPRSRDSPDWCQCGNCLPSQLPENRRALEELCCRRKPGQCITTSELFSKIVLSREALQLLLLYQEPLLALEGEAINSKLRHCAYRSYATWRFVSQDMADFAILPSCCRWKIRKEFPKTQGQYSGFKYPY
Summary of the method: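 HEK293 cells stably expressing rat P2X7 (5,000/well, plated 24 h before) loaded with Fluo-4; compounds preincubated 10 min at room temperature, then Ca2+ rise after 10 microM BzATP (final) read on FDSS (480/540 nm). IC50 from 7-point curves, duplicate wells.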

Sequence of human P2X7 (Q99572 whole entry): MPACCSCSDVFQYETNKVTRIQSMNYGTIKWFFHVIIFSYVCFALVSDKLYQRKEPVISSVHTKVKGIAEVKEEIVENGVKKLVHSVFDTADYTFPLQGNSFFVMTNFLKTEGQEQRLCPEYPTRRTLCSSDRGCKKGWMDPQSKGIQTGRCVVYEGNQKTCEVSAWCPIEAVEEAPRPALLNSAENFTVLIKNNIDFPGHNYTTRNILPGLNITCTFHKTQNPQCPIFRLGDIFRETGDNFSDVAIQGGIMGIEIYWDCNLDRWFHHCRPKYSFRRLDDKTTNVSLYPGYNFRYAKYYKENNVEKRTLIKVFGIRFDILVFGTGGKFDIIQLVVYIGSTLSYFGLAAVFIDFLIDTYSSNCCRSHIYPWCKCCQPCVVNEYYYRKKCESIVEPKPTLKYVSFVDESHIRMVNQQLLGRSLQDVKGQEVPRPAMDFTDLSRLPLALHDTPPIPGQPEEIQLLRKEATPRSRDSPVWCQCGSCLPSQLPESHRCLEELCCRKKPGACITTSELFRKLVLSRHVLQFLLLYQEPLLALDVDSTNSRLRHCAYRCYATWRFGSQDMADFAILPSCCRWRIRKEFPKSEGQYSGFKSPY

Row | pIC50 (human P2X7) | pIC50 (rat P2X7) | Compound
1 | > 7.30 | > 6.00 | N#CC[C@]1(O)CC[C@@](F)(C(=O)NCc2c(Cl)cc(Cl)cc2CO)c2cccnc21 [Example 283]
2 | > 7.30 | > 6.00 | N#CC[C@]1(O)CC[C@@](F)(C(=O)NCc2c(Cl)cc(F)cc2CO)c2cccnc21 [Example 284, (5S,8R)-N-(2-chloro-4-fluoro-6-(hydroxymethyl)benzyl)-8-(cyanomethyl)-5-fluoro-8-hydroxy-5,6,7,8-tetrahydroquinoline-5-carboxamide]
3 | > 7.30 | > 6.00 | O=C(NCc1ccc(Cl)cc1Cl)[C@]1(F)CC[C@@](O)(CF)c2ncccc21 [Example 285, (5S,8S)-N-(2,4-dichlorobenzyl)-5-fluoro-8-(fluoromethyl)-8-hydroxy-5,6,7,8-tetrahydroquinoline-5-carboxamide]
4 | > 7.30 | > 6.00 | O=C(NCc1ccc(F)cc1Cl)[C@]1(F)CC[C@@](O)(CF)c2ncccc21 [Example 286, (5S,8S)-N-(2-chloro-4-fluorobenzyl)-5-fluoro-8-(fluoromethyl)-8-hydroxy-5,6,7,8-tetrahydroquinoline-5-carboxamide]
5 | > 7.30 | > 6.00 | CSC[C@]1(O)CC[C@@](F)(C(=O)NCc2ccc(Cl)cc2Cl)c2cccnc21 [Example 287, (5S,8S)-N-(2,4-dichlorobenzyl)-5-fluoro-8-hydroxy-8 ((methylthio)methyl)-5,6,7,8-tetrahydroquinoline-5-carboxamide]
6 | > 7.30 | > 6.00 | CSC[C@]1(O)CC[C@@](F)(C(=O)NCc2ccc(F)cc2Cl)c2cccnc21 [Example 288, (5S,8S)-N-(2-chloro-4-fluorobenzyl)-5-fluoro-8-hydroxy-8-((methylthio)methyl)-5,6,7,8-tetrahydroquinoline-5-carboxamide]
7 | > 7.30 | > 6.00 | O=C(NCc1ccc(F)cc1Cl)[C@]1(F)CC[C@@](O)(CSCCO)c2ncccc21 [Example 289, (5S,8S)-N-(2-chloro-4-fluorobenzyl)-5-fluoro-8-hydroxy-8-(((2-hydroxyethyl)thio)methyl)-5,6,7,8-tetrahydroquinoline-5-carboxamide]
8 | > 7.30 | > 6.00 | CN1CCO[C@]2(CC[C@@](F)(C(=O)NCc3ccc(Cl)cc3Cl)c3cccnc32)C1 [Example 290, (2R,5′S)—N-(2,4-dichlorobenzyl)-5′-fluoro-4-methyl-6′,7′-dihydro-5′H-spiro[morpholine-2,8′-quinoline]-5′-carboxamide]
9 | 6.52 to 7.00 | > 6.00 | O=C1NC[C@]2(CC[C@@](F)(C(=O)NCc3ccc(Cl)cc3Cl)c3cccnc32)O1 [Example 291, (5S,5′S)-N-(2,4-dichlorobenzyl)-5′-fluoro-2-oxo-6′,7′-dihydro-5′H-spiro [oxazolidine-5,8′-quinoline]-5′-carboxamide]
10 | 7.00 to 7.30 | > 6.00 | O=C1NC[C@@]2(CC[C@@](F)(C(=O)NCc3ccc(Cl)cc3Cl)c3cccnc32)O1 [Example 292, (5R,5′S)-N-(2,4-dichlorobenzyl)-5′-fluoro-2-oxo-6′,7′-dihydro-5′H-spiro [oxazolidine-5,8′-quinoline]-5′-carboxamide]
11 | 7.00 to 7.30 | > 6.00 | O=C1CO[C@@]2(CC[C@@](F)(C(=O)NCc3ccc(Cl)cc3Cl)c3cccnc32)CN1 [Example 294, (2S,5′S)-N-(2,4-dichlorobenzyl)-5′-fluoro-5-oxo-6′,7′-dihydro-5′H-spiro [morpholine-2,8′-quinoline]-5′-carboxamide]
12 | > 7.30 | > 6.00 | O=C1CO[C@]2(CC[C@@](F)(C(=O)NCc3ccc(Cl)cc3Cl)c3cccnc32)CN1 [Example 295, (2R,5′S)-N-(2,4-dichlorobenzyl)-5′-fluoro-5-oxo-6′,7′-dihydro-5′H-spiro [morpholine-2,8′-quinoline]-5′-carboxamide]
13 | 7.00 to 7.30 | > 6.00 | C[S+]([O-])C[C@]1(O)CC[C@@](F)(C(=O)NCc2ccc(F)cc2Cl)c2cccnc21 (stereo partly drawn) [Example 296, (5S,8S)-N-(2-chloro-4-fluorobenzyl)-5-fluoro-hydroxy-8-((methylsulfinyl)methyl)-5,6,7,8-tetrahydroquinoline-5-carboxamide]
14 | > 7.30 | > 6.00 | CS(=O)(=O)C[C@]1(O)CC[C@@](F)(C(=O)NCc2ccc(Cl)cc2Cl)c2cccnc21 [Example 298, (5S,8S)-N-(2,4-dichlorobenzyl)-5-fluoro-8-hydroxy-8-((methylsulfonyl)methyl)-5,6,7,8-tetrahydroquinoline-5-carboxamide]
15 | 6.52 to 7.00 | > 6.00 | CS(=O)(=O)C[C@]1(O)CC[C@@](F)(C(=O)NCc2ccc(F)cc2Cl)c2cccnc21 [Example 299, (5S,8S)-N-(2-chloro-4-fluorobenzyl)-5-fluoro-8-hydroxy-8-((methylsulfonyl)methyl)-5,6,7,8-tetrahydroquinoline-5-carboxamide]
16 | > 7.30 | > 6.00 | O=C(NCc1ccc(Cl)cc1Cl)[C@]1(F)CC[C@@](O)(CS(=O)(=O)CCO)c2ncccc21 [Example 300, (5S,8S)-N-(2,4-dichlorobenzyl)-5-fluoro-8-hydroxy-8-(((2-hydroxyethyl)sulfonyl)methyl)-5,6,7,8-tetrahydroquinoline-5-carboxamide]
17 | 7.00 to 7.30 | > 6.00 | O=C(NCc1ccc(F)cc1Cl)[C@]1(F)CC[C@@](O)(CS(=O)(=O)CCO)c2ncccc21 [Example 301, (5S,8S)-N-(2-chloro-4-fluorobenzyl)-5-fluoro-8-hydroxy-8-(((2-hydroxyethyl)sulfonyl)methyl)-5,6,7,8-tetrahydroquinoline-5-carboxamide]
18 | 6.52 to 7.00 | > 6.00 | O=C(NCc1ccc(Cl)cc1Cl)[C@@]1(F)CC[C@](O)(CO)c2ncccc21 [Example 302, (5R,8R)-N-(2,4-dichlorobenzyl)-5-fluoro-8-hydroxy-8-(hydroxymethyl)-5,6,7,8-tetrahydroquinoline-5-carboxamide]
19 | 5.52 to 6.00 | > 6.00 | O=C(NCc1ccc(Cl)cc1Cl)[C@@]1(F)CC[C@@](O)(CO)c2ncccc21 [Example 303, (5R,8S)-N-(2,4-dichlorobenzyl)-5-fluoro-8-hydroxy-8-(hydroxymethyl)-5,6,7,8-tetrahydroquinoline-5-carboxamide]
20 | > 7.30 | > 6.00 | O=C(NCc1ccc(Cl)cc1Cl)[C@]1(F)CC[C@@](O)(CO)c2ncccc21 [Example 304, (5S,8S)-N-(2,4-dichlorobenzyl)-5-fluoro-8-hydroxy-8-(hydroxymethyl)-5,6,7,8-tetrahydroquinoline-5-carboxamide]
21 | > 7.30 | > 6.00 | O=C(NCc1ccc(Cl)cc1Cl)[C@]1(F)CC[C@](O)(CO)c2ncccc21 [Example 305, (5S,8R)-N-(2,4-dichlorobenzyl)-5-fluoro-8-hydroxy-8-(hydroxymethyl)-5,6,7,8-tetrahydroquinoline-5-carboxamide]
22 | > 7.30 | > 6.00 | O=C(NCc1ccc(F)cc1Cl)[C@]1(F)CC[C@@](O)(CO)c2ncccc21 [Example 306, (5S,8S)-N-(2-chloro-4-fluorobenzyl)-5-fluoro-8-hydroxy-8-(hydroxymethyl)-5,6,7,8-tetrahydroquinoline-5-carboxamide]
23 | 6.00 to 6.52 | > 6.00 | O=C(NCc1ccc(F)cc1Cl)[C@]1(F)CC[C@](O)(CO)c2ncccc21 [Example 307, (5S,8R)-N-(2-chloro-4-fluorobenzyl)-5-fluoro-8-hydroxy-8-(hydroxymethyl)-5,6,7,8-tetrahydroquinoline-5-carboxamide]
24 | 6.52 to 7.00 | > 6.00 | O=C(NCc1ccc(F)c(F)c1F)[C@]1(F)CC[C@@](O)(CO)c2ncccc21 [Example 308, (5S,8S)-5-fluoro-8-hydroxy-8-(hydroxymethyl)-N-(2,3,4-trifluorobenzyl)-5,6,7,8-tetrahydroquinoline-5-carboxamide]
25 | 5.52 to 6.00 | > 6.00 | O=C(NCc1ccc(F)c(F)c1F)[C@]1(F)CC[C@](O)(CO)c2ncccc21 [Example 309, (5S,8R)-5-fluoro-8-hydroxy-8-(hydroxymethyl)-N-(2,3,4-trifluorobenzyl)-5,6,7,8-tetrahydroquinoline-5-carboxamide]
26 | > 7.30 | > 6.00 | O=C(NCc1c(F)cc(Cl)cc1Cl)[C@]1(F)CC[C@@](O)(CO)c2ncccc21 [Example 310, (5S,8S)-N-(2,4-dichloro-6-fluorobenzyl)-5-fluoro-8-hydroxy-8-(hydroxymethyl)-5,6,7,8-tetrahydroquinoline-5-carboxamide]
27 | 7.00 to 7.30 | > 6.00 | O=C(NCc1c(F)cc(Cl)cc1Cl)[C@]1(F)CC[C@](O)(CO)c2ncccc21 [Example 311, (5S,8R)-N-(2,4-dichloro-6-fluorobenzyl)-5-fluoro-8-hydroxy-8-(hydroxymethyl)-5,6,7,8-tetrahydroquinoline-5-carboxamide]
28 | > 7.30 | > 6.00 | O=C(NCc1ccc(F)c(F)c1Cl)[C@]1(F)CC[C@@](O)(CO)c2ncccc21 [Example 312, (5S,8S)-N-(2-chloro-3,4-difluorobenzyl)-5-fluoro-8-hydroxy-8-(hydroxymethyl)-5,6,7,8-tetrahydroquinoline-5-carboxamide]
29 | 7.00 to 7.30 | > 6.00 | O=C(NCc1ccc(F)c(F)c1Cl)[C@]1(F)CC[C@](O)(CO)c2ncccc21 [Example 313, (5S,8R)-N-(2-chloro-3,4-difluorobenzyl)-5-fluoro-8-hydroxy-8-(hydroxymethyl)-5,6,7,8-tetrahydroquinoline-5-carboxamide]
